The subject of the experiment is MCF-7 cells. The experiment in a line: Breast Cancer Cell Viability Assay (MCF-7, CellTiter-Glo). The format is cell-based. The following applies: 5 days' compound exposure; for IC50: Homo sapiens, MCF7, 120 h. On the procedure: MCF-7 cells were adjusted to a concentration of 20,000 cells per mL in RPMI containing 10% FBS and 20 mM HEPES. 16 microliters of the cell suspension (320 cells) was added to each well of a 384 well plate, and the cells were incubated overnight to allow the cells to adhere. The following day an eleven point, serial semilog dilution of each compound was added to the cells in 16 μL at a final concentration ranging from 0.3-0.000003 μM. After 5 days' compound exposure, 16 μL of CellTiter-GLo (Promega, Madison Wis.) was added to the cells the relative luminescence units (RLUs) of each well was determined CellTiter-Glo added to 32 μL of medium without cells was used to obtain a background value. The Percent viability of each sample was determined as follows: (RLU sample-RLU background/RLU untreated cells-RLU background)×100=% viability.

Some results are limits rather than exact numbers.

By IC50 is commonly meant the point on the concentration scale where inhibition reaches its midpoint. A lower IC50 goes with higher potency.

For the compound `CC/C(=C(/c1ccc(/C=C/C(=O)O)cc1)c1ccc2[nH]ncc2c1)c1ccc(F)cc1Cl` [Compound 111, (E)-3-(4-((E)-2-(2-Chloro-4-fluorophenyl)-1-(1H-indazol-5-yl)but-1-en-1-yl)phenyl)acrylic acid], the “MCF7 Viability Assay Max Response” value is listed as “++ (++ = a single % value ≧ 40%)” and the IC50 is not above 100 nM.

In the case of `CCOC(=O)/C=C/c1ccc(/C(=C(/CC)c2ccccc2OC)c2ccc3[nH]ncc3c2)cc1` [Compound 91, (E)-ethyl 3-(4-((E)-1-(1H-indazol-5-yl)-2-(2-methoxyphenyl)but-1-en-1-yl)phenyl)acrylate], the “MCF7 Viability Assay Max Response” value is reported as “+ (+ = a single % value < 40%)” and the IC50 is not above 100 nM.

As to `CCOC(=O)/C=C/c1ccc(/C(=C(/CC)c2ccc(OC)cc2)c2ccc3[nH]ncc3c2)cc1` [Compound 92, (E)-Ethyl 3-(4-((E)-1-(1H-Indazol-5-yl)-2-(4-methoxyphenyl)but-1-en-1-yl)phenyl)acrylate], the “MCF7 Viability Assay Max Response” value is listed as “+ (+ = a single % value < 40%)” and the 50% inhibitory concentration (IC50) is not above 100 nM.

As for `[2H]C([2H])([2H])C([2H])([2H])/C(=C(/c1ccc(/C=C/C(=O)O)cc1)c1ccc2[nH]ncc2c1)c1ccc(F)cc1Cl` [Compound 136, (E)-3-(4-((E)-2-(2-Chloro-4-fluorophenyl)-3,3,4,4,4-pentadeutero-1-(1H-indazol-5-yl)but-1-en-1-yl)phenyl)acrylic acid], the “MCF7 Viability Assay Max Response” value is listed as “++ (++ = a single % value ≧ 40%)” and the IC50 is not above 100 nM.
